# Experimental data as given in ChEMBL document CHEMBL5465560, “Selectivity Literature for EUbOPEN Chemogenomic Library” (2024).
# Columns and labels:
# [1] = biological target: Calcium/calmodulin-dependent protein kinase type 1 (Homo sapiens) (UniProt Q14012); test: Selectivity interaction (KinomeScan (DiscoverX)) EUB0001079a CAMK1; details: at 1 µM
# [2] = biological target: Cyclin-dependent kinase 8 (Homo sapiens, UniProt P49336); test: Selectivity interaction (KinomeScan (DiscoverX)) EUB0000618a CDK8; details: at 10 µM
# Cyclin-dependent kinase 8, sequence (P49336 whole entry): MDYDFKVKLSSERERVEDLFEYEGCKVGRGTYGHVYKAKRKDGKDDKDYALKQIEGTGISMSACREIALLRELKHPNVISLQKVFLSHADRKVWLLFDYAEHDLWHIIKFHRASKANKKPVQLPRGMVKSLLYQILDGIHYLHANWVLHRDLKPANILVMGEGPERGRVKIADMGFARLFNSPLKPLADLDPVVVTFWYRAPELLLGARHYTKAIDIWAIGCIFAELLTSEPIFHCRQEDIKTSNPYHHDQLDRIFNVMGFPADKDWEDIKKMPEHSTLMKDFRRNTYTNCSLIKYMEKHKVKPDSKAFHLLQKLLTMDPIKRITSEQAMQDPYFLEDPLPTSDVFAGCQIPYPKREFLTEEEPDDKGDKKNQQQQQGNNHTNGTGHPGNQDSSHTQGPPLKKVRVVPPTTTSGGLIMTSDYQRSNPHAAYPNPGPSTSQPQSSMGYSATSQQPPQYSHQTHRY
# [3] = biological target: Serine/threonine-protein kinase PAK 4 (Homo sapiens, UniProt O96013); test: Selectivity interaction (KinomeScan (DiscoverX)) EUB0000618a PAK4; details: at 10 µM
# Serine/threonine-protein kinase PAK 4, sequence (O96013 whole entry, looked up): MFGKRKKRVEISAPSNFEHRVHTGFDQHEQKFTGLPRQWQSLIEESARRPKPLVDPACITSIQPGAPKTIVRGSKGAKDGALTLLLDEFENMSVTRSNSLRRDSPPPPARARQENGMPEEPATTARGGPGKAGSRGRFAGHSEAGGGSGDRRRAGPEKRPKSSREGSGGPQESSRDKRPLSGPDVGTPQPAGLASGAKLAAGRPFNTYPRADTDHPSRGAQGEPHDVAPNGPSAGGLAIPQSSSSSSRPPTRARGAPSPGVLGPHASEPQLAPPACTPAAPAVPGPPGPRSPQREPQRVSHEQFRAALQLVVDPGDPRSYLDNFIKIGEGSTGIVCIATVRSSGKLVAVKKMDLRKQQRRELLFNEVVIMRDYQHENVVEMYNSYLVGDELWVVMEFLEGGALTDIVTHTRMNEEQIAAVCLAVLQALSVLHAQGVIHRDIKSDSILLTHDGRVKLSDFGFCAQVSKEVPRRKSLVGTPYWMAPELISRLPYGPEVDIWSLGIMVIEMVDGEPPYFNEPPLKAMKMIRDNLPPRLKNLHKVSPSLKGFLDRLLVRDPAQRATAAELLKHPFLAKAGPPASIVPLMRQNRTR
# [4] = biological target: Ephrin type-A receptor 5 (Homo sapiens) (UniProt P54756); test: Selectivity interaction (KinomeScan (DiscoverX)) EUB0000607a EPHA5; details: at 10 µM
# [5] = biological target: T1, Serine/threonine-protein kinase 3 (Homo sapiens) (UniProt Q13188); test: Selectivity interaction (ActivX KiNativ screen (ex vivo kinase selectivity in human PBMCs)) EUB0001619a STK3; format: cell-based; details: PBMC, at 1 µM
# T1 sequence (whole entry): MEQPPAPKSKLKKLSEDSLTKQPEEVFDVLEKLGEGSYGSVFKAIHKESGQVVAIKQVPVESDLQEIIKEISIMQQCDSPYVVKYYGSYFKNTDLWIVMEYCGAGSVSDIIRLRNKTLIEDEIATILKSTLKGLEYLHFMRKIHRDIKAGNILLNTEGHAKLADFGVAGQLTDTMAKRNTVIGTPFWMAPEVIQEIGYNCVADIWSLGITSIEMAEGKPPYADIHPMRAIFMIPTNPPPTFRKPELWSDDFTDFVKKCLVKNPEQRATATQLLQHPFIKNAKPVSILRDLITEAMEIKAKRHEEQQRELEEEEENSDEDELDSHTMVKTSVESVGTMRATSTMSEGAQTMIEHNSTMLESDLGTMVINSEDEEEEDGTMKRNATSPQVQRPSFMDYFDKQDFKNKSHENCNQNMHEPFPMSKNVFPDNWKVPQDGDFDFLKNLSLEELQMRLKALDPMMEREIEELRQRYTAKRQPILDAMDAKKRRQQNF
# [6] = biological target: Cyclin-dependent kinase 5 (Homo sapiens, UniProt Q00535); test: Selectivity interaction (ActivX KiNativ screen (ex vivo kinase selectivity in human PBMCs)) EUB0001619a CDK5; format: cell-based; details: PBMC, at 1 µM
# Cyclin-dependent kinase 5, sequence (Q00535 whole entry, looked up, the tested form may be a part): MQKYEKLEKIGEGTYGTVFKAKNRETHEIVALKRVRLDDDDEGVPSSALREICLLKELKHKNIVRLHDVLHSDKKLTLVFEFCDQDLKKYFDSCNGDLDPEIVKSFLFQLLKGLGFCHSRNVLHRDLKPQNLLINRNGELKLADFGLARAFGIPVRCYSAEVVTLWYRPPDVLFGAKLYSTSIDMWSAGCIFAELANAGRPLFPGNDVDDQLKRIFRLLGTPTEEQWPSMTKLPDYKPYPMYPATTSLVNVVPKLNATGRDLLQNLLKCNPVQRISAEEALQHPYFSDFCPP
# [7] = biological target: T2, Mixed lineage kinase domain-like protein (Homo sapiens) (UniProt Q8NB16); test: Selectivity interaction (ActivX KiNativ screen (ex vivo kinase selectivity in human PBMCs)) EUB0001619a MLKL; format: cell-based; details: PBMC, at 1 µM
# T2 sequence (whole entry): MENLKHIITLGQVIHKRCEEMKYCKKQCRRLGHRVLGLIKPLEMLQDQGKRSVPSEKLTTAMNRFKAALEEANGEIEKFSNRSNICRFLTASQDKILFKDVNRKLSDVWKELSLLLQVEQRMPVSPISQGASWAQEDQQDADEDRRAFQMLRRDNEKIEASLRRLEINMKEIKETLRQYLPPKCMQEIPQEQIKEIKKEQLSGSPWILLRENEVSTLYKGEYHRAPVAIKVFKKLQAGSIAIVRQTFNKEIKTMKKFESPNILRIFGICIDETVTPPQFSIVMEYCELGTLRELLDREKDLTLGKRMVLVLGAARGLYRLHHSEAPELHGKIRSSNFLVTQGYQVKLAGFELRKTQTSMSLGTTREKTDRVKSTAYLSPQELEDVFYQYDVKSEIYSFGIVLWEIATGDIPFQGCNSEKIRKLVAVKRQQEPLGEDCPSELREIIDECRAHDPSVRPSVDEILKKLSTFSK
# [8] = biological target: Receptor-interacting serine/threonine-protein kinase 2 (Homo sapiens, UniProt O43353); test: Selectivity interaction (KinomeScan (DiscoverX)) EUB0001619a RIPK2; details: at 1 µM
# Receptor-interacting serine/threonine-protein kinase 2, sequence (O43353 whole entry): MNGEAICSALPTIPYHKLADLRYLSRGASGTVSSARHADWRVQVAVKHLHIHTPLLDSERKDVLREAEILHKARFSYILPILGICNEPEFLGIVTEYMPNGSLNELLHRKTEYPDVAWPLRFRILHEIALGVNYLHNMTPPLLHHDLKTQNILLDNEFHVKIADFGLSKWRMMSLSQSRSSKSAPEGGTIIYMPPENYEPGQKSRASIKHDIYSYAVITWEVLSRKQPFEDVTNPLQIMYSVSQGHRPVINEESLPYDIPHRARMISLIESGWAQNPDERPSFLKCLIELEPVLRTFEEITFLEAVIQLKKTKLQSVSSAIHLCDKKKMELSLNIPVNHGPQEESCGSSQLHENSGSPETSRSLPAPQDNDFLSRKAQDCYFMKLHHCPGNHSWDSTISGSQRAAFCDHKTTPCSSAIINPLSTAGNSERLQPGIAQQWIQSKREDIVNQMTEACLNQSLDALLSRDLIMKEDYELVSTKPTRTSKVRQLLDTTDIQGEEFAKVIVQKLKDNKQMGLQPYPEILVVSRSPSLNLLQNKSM
# [9] = biological target: T3, Serine/threonine-protein kinase Nek1 (Homo sapiens) (UniProt Q96PY6); test: Selectivity interaction (Kinase panel (DSF assay)) EUB0001558a NEK1
# T3 sequence (whole entry): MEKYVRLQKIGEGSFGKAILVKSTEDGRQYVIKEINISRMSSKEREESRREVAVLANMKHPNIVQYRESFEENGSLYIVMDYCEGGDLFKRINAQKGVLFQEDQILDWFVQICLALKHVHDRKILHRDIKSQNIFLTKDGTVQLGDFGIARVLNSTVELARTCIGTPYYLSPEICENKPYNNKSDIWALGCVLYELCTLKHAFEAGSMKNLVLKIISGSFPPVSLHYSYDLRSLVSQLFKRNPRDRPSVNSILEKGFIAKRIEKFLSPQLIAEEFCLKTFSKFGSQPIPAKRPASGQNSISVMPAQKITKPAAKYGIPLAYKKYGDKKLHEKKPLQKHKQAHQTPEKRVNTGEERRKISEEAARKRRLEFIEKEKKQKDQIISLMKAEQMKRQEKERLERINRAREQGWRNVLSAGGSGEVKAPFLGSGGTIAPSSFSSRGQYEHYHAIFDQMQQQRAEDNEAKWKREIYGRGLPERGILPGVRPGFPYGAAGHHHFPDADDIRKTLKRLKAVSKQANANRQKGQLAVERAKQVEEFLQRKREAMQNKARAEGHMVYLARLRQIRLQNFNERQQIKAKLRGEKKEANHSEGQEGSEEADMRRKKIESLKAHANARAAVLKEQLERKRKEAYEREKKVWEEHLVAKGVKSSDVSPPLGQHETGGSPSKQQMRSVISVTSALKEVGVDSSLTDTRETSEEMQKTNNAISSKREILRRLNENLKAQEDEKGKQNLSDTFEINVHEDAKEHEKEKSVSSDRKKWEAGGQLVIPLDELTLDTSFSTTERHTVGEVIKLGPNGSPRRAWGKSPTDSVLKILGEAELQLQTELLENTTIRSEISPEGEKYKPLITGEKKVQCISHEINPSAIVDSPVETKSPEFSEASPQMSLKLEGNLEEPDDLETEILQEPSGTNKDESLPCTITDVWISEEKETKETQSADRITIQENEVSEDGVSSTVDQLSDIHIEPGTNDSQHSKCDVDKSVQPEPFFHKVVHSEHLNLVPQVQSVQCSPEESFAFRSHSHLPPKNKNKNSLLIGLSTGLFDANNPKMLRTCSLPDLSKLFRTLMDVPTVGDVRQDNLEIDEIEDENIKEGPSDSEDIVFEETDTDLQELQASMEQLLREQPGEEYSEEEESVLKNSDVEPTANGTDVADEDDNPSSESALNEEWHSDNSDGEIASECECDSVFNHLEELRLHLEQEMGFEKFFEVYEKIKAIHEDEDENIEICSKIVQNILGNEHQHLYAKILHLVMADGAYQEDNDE
# [10] = biological target: Serine/threonine-protein kinase PAK 6 (Homo sapiens) (UniProt Q9NQU5); details: at 10 µM
# [11] = biological target: G protein-coupled receptor kinase 5 (Homo sapiens, UniProt P34947); test: Selectivity interaction (ProQinase) EUB0000171b GRK5
# G protein-coupled receptor kinase 5, sequence (P34947 whole entry, looked up): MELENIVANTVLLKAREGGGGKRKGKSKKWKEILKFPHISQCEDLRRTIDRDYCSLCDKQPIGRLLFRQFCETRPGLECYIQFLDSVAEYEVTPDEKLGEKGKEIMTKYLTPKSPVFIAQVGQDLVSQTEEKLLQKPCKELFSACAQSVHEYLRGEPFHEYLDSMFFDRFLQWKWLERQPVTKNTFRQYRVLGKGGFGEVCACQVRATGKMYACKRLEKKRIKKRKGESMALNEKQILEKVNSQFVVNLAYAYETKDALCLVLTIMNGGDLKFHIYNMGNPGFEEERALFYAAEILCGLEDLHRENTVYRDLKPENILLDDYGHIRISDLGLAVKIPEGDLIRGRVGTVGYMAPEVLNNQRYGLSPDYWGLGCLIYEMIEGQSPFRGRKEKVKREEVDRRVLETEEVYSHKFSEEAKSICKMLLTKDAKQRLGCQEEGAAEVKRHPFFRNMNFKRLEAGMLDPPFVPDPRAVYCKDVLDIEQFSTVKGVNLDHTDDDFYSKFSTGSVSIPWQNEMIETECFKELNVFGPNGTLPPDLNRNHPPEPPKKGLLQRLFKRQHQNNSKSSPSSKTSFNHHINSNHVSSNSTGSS
# [12] = biological target: Microtubule-associated serine/threonine-protein kinase 1 (Homo sapiens) (UniProt Q9Y2H9); test: Selectivity interaction (KinomeScan (DiscoverX)) EUB0001049a MAST1; details: at 1 µM
# Microtubule-associated serine/threonine-protein kinase 1 (Homo sapiens), sequence (Q9Y2H9 whole entry, looked up): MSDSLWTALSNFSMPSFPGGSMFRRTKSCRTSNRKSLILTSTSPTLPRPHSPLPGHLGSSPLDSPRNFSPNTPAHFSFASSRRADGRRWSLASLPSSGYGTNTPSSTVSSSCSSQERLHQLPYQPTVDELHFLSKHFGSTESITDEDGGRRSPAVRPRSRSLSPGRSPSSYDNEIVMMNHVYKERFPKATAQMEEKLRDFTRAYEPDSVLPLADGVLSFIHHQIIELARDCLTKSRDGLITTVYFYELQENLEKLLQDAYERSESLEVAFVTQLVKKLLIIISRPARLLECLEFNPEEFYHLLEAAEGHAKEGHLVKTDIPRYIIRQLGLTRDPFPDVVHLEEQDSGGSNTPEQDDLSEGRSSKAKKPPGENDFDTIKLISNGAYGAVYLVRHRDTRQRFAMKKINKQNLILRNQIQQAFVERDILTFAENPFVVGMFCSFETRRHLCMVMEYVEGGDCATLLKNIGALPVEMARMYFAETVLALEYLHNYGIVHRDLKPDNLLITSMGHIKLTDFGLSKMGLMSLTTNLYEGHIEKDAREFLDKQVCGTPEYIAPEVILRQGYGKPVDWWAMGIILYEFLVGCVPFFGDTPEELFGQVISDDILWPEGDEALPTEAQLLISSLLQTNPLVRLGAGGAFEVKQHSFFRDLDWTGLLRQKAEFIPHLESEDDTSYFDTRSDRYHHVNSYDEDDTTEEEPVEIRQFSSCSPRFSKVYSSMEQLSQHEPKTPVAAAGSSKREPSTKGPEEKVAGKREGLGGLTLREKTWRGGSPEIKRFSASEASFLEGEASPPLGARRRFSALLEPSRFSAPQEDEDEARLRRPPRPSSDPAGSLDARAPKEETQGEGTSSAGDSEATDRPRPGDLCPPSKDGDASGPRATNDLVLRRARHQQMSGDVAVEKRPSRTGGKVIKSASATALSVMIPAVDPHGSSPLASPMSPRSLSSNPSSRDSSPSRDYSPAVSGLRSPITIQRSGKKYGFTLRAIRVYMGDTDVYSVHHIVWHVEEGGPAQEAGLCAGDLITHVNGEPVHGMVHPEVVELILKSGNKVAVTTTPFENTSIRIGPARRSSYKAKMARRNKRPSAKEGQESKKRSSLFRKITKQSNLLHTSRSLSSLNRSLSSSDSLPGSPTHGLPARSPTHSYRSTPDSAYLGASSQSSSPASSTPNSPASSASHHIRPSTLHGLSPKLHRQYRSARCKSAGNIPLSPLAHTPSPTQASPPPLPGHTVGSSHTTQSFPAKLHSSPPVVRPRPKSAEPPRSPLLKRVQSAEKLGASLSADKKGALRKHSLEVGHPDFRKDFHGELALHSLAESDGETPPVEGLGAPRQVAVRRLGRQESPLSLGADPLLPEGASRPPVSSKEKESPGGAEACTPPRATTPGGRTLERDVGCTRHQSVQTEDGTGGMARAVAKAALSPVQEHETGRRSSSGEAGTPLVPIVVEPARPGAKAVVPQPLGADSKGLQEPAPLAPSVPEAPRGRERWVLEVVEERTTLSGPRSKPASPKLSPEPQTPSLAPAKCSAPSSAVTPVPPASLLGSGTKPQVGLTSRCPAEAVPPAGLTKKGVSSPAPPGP
# Calcium/calmodulin-dependent protein kinase type 1 (Homo sapiens), sequence (Q14012 whole entry, looked up): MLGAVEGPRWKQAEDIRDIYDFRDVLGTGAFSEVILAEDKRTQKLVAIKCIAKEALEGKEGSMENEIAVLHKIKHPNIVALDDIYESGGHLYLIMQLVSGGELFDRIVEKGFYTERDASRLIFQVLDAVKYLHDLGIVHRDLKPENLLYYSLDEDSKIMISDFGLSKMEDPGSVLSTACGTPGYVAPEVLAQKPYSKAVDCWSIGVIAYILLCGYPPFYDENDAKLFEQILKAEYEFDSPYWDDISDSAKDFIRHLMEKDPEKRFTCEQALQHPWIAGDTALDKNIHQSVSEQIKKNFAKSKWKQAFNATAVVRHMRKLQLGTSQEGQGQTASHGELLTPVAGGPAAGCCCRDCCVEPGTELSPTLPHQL
smiles,measurement,setting,value
Nc1cnc(N2CCc3cc(S(=O)(=O)Nc4c(F)cc(Cl)cc4F)cc(N4CCCC4=O)c32)nc1 [TP-020n],% of control,[1],88%
O[C@H]1CC[C@H](Nc2ncc3nc(Nc4c(F)cc(F)cc4F)n([C@H]4CCOC4)c3n2)CC1,% of control,[2],100%
same,% of control,[3],100%
CNC(=O)Nc1ccc(-c2nc(N3CC4CCC(C3)O4)c3cnn(C4CCC5(CC4)OCCO5)c3n2)cc1,% of control,[4],92%
N#Cc1cccc(-c2c[nH]c3ncnc(N4CCOCC4)c23)c1,% of inhibition,[5],69%
same,% of inhibition,[6],0%
same,% of inhibition,[7],15%
same,% of control,[8],84%
CC(C)(O)[C@H](F)CN1Cc2cc(NC(=O)c3cnn4cccnc34)c(N3CCOCC3)cc2C1=O,dTM,[9],-1.2 K
Cc1cc([C@@H](C)Nc2ccccc2C(=O)O)c2nc(N3CCOCC3)cc(=O)n2c1 [AZD-6482],% of control,[10],93%
C=CC(=O)Nc1cccc(C(=O)Nc2ccc(Nc3cc(-c4[nH]c(SC)nc4C)ccn3)cc2)c1,% of control,[11]; at 1 µM,97%
same,% of control,[11]; at 5 µM,94%
COc1cc(Nc2nc(C)cc(-c3cnn4nc(OC)ccc34)n2)cc(C(F)(F)F)c1,% of control,[12],100%
